Assay results reported in PubChem BioAssay AID248 (DTP/NCI, 2004).
Values joined by “and” are separate entries in the source; they are usually repeats but may differ in a detail not shown here. Equal values may be shown once. Inconclusive results and toxic doses are left out. Rule as the data show it: active = T/C of 150% or more; inactive = T/C below 125%.

System: L1210 leukemia ip in BDF1 mice, survival T/C
Assay: NCI In Vivo Anticancer Drug Screen. Data for tumor model L1210 Leukemia (intraperitoneal) in B6D2F1 (BDF1) mice
Conditions: endpoint: mean survival time, higher = longer survival
Procedure, shortened: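 Tumor was transplanted into mice, which were then dosed with test compound or vehicle alone. Survival was recorded for each group, and the treated figure was expressed relative to the control figure.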

[1] = dose: 25.0 mg/kg/injection, schedule: Q01DX009 (ip), vehicle: Klucel (hydroxypropylcellulose) (HPC)
[2] = dose: 50.0 mg/kg/injection, schedule: Q01DX009 (ip), vehicle: Klucel (hydroxypropylcellulose) (HPC)
[3] = dose: 100.0 mg/kg/injection, schedule: Q01DX009 (ip), vehicle: Klucel (hydroxypropylcellulose) (HPC)
[4] = dose: 100.0 mg/kg/injection, schedule: Q01DX001 (ip), vehicle: saline with Tween-80
[5] = dose: 200.0 mg/kg/injection, schedule: Q01DX001 (ip), vehicle: saline with Tween-80
[6] = dose: 400.0 mg/kg/injection, schedule: Q01DX001 (ip), vehicle: saline with Tween-80
[7] = dose: 50.0 mg/kg/injection, schedule: Q01DX009 (ip), vehicle: saline
[8] = dose: 100.0 mg/kg/injection, schedule: Q04DX003 (ip), vehicle: Klucel (hydroxypropylcellulose) (HPC)
[9] = dose: 200.0 mg/kg/injection, schedule: Q04DX003 (ip), vehicle: Klucel (hydroxypropylcellulose) (HPC)
[10] = dose: 400.0 mg/kg/injection, schedule: Q04DX003 (ip), vehicle: Klucel (hydroxypropylcellulose) (HPC)
[11] = dose: 25.0 mg/kg/injection, schedule: Q04DX003 (ip), vehicle: saline with Tween-80
[12] = dose: 100.0 mg/kg/injection, schedule: Q04DX003 (ip), vehicle: saline with Tween-80

Measured: T/C

CCCCCCCC(=O)N(C(C)C)C(C)C
inactive: dose: 100.0 mg/kg/injection, schedule: Q01DX001 (ip), vehicle: carboxymethylcellulose (CMC) 108 % of control | dose: 100.0 mg/kg/injection, schedule: Q01DX009 (ip), vehicle: carboxymethylcellulose (CMC) 101 % of control and 103 % of control | dose: 100.0 mg/kg/injection, schedule: Q04DX002 (ip), vehicle: carboxymethylcellulose (CMC) 100 % of control | dose: 100.0 mg/kg/injection, schedule: Q04DX003 (ip), vehicle: carboxymethylcellulose (CMC) 100 % of control | dose: 200.0 mg/kg/injection, schedule: Q01DX001 (ip), vehicle: carboxymethylcellulose (CMC) 98 % of control | dose: 200.0 mg/kg/injection, schedule: Q01DX009 (ip), vehicle: carboxymethylcellulose (CMC) 93 % of control and 109 % of control | dose: 200.0 mg/kg/injection, schedule: Q04DX002 (ip), vehicle: carboxymethylcellulose (CMC) 89 % of control | dose: 200.0 mg/kg/injection, schedule: Q04DX003 (ip), vehicle: carboxymethylcellulose (CMC) 102 % of control | dose: 400.0 mg/kg/injection, schedule: Q01DX001 (ip), vehicle: carboxymethylcellulose (CMC) 96 % of control | dose: 400.0 mg/kg/injection, schedule: Q01DX009 (ip), vehicle: carboxymethylcellulose (CMC) 103 % of control and 111 % of control | dose: 400.0 mg/kg/injection, schedule: Q04DX002 (ip), vehicle: carboxymethylcellulose (CMC) 96 % of control | dose: 400.0 mg/kg/injection, schedule: Q04DX003 (ip), vehicle: carboxymethylcellulose (CMC) 105 % of control

NC(=S)N/N=C/c1cccnc1
inactive: [1] 92 % of control | [2] 87 % of control | dose: 50.0 mg/kg/injection, schedule: Q04DX002 (ip), vehicle: Klucel (hydroxypropylcellulose) (HPC) 98 % of control | [3] 89 % of control | dose: 100.0 mg/kg/injection, schedule: Q04DX002 (ip), vehicle: Klucel (hydroxypropylcellulose) (HPC) 95 % of control and 107 % of control | dose: 200.0 mg/kg/injection, schedule: Q04DX002 (ip), vehicle: Klucel (hydroxypropylcellulose) (HPC) 95 % of control

Fc1c(F)c(F)c(-c2c(F)c(F)c(-c3c(F)c(F)c(-c4c(F)c(F)c(F)c(F)c4F)c(F)c3F)c(F)c2F)c(F)c1F
inactive: [4] 88 % of control | [5] 88 % of control | [6] 88 % of control

O=C1C=CC(=C(c2ccccc2)c2ccccc2)C=C1
inactive: dose: 12.5 mg/kg/injection, schedule: Q01DX009 (ip), vehicle: Klucel (hydroxypropylcellulose) (HPC) 106 % of control | [1] 95 % of control | [2] 107 % of control | [7] 87 % of control | dose: 75.0 mg/kg/injection, schedule: Q04DX003 (ip), vehicle: saline 90 % of control | dose: 150.0 mg/kg/injection, schedule: Q04DX003 (ip), vehicle: saline 102 % of control

CCCC[CH2][Sn]([CH2]CCCC)[CH2]CCCC.CCCC[CH2][Sn]([CH2]CCCC)[CH2]CCCC
inactive: dose: 100.0 mg/kg/injection, schedule: Q04DX002 (sc), vehicle: olive oil, sesame oil, peanut oil 115 % of control | dose: 200.0 mg/kg/injection, schedule: Q04DX002 (sc), vehicle: olive oil, sesame oil, peanut oil 99 % of control | dose: 400.0 mg/kg/injection, schedule: Q04DX002 (sc), vehicle: olive oil, sesame oil, peanut oil 105 % of control

CCOc1ccc(N=[N+]([O-])c2ccc(OCC)cc2)cc1
inactive: [4] 103 % of control | [5] 103 % of control | [6] 92 % of control

COc1ccc([N+](=O)[O-])cc1NC(=O)Nc1ccc(CCO)cc1
inactive: [2] 92 % of control | [3] 105 % of control | dose: 200.0 mg/kg/injection, schedule: Q01DX009 (ip), vehicle: Klucel (hydroxypropylcellulose) (HPC) 97 % of control

Nc1nc2ncsc2c(=O)[nH]1
inactive: [4] 89 % of control | [5] 89 % of control | [6] 102 % of control

CC1(C)Cc2cccc(C=C(C#N)C#N)c2O1
inactive: [8] 106 % of control | [9] 97 % of control | [10] 113 % of control

c1ccc2[nH]c(-c3ccc(N=Nc4ccc(-c5nc6ccccc6[nH]5)cc4)cc3)nc2c1
inactive: dose: 15.0 mg/kg/injection, schedule: Q01DX Z (ip), vehicle: other 100 % of control | dose: 30.0 mg/kg/injection, schedule: Q01DX Z (ip), vehicle: other 97 % of control | dose: 60.0 mg/kg/injection, schedule: Q01DX Z (ip), vehicle: other 105 % of control | dose: 120.0 mg/kg/injection, schedule: Q01DX Z (ip), vehicle: other 96 % of control | dose: 180.0 mg/kg/injection, schedule: Q01DX Z (ip), vehicle: carboxymethylcellulose (CMC) 108 % of control | dose: 270.0 mg/kg/injection, schedule: Q01DX Z (ip), vehicle: carboxymethylcellulose (CMC) 101 % of control

O=C(NNc1c(Cl)cc(Cl)cc1Cl)C(O)C(O)C(O)C(O)CO (stereo not given)
inactive: dose: 100.0 mg/kg/injection, schedule: Q04DX003 (ip), vehicle: saline 91 % of control | dose: 200.0 mg/kg/injection, schedule: Q04DX003 (ip), vehicle: saline 87 % of control | dose: 400.0 mg/kg/injection, schedule: Q04DX003 (ip), vehicle: saline 87 % of control

COC1OC(CN(CCOS(C)(=O)=O)S(C)(=O)=O)C2OC(C)(C)OC12 (stereo not given)
inactive: [7] 95 % of control | dose: 50.0 mg/kg/injection, schedule: Q04DX003 (ip), vehicle: Klucel (hydroxypropylcellulose) (HPC) 116 % of control | dose: 100.0 mg/kg/injection, schedule: Q01DX009 (ip), vehicle: saline 97 % of control | [8] 102 % of control | dose: 200.0 mg/kg/injection, schedule: Q01DX009 (ip), vehicle: saline 95 % of control | [9] 121 % of control | dose: 400.0 mg/kg/injection, schedule: Q01DX009 (ip), vehicle: saline 95 % of control | [10] 104 % of control

O=C(O)C1C(c2ccccc2)=C(c2ccccc2)c2ccccc21 (stereo not given)
inactive: [11] 92 % of control | dose: 50.0 mg/kg/injection, schedule: Q04DX003 (ip), vehicle: saline with Tween-80 100 % of control | [12] 95 % of control and 103 % of control

ClCC1=Nc2c(Cl)ncnc2NN1
inactive: dose: 6.25 mg/kg/injection, schedule: Q04DX003 (ip), vehicle: saline with Tween-80 94 % of control | dose: 12.5 mg/kg/injection, schedule: Q04DX003 (ip), vehicle: saline with Tween-80 96 % of control | dose: 25.0 mg/kg/injection, schedule: Q01DX001 (ip), vehicle: saline with Tween-80 95 % of control | [11] 91 % of control

CCC(C)OC(=O)Nc1cccc(OC(=O)NC(C)C)c1 (stereo not given)
inactive: [12] 96 % of control | dose: 200.0 mg/kg/injection, schedule: Q04DX003 (ip), vehicle: saline with Tween-80 102 % of control | dose: 400.0 mg/kg/injection, schedule: Q04DX003 (ip), vehicle: saline with Tween-80 93 % of control

[F][Sn]([c]1ccc(Cl)cc1)([c]1ccc(Cl)cc1)[c]1ccc(Cl)cc1
inactive: dose: 0.18 mg/kg/injection, schedule: Q04DX003 (ip), vehicle: other 97 % of control | dose: 0.37 mg/kg/injection, schedule: Q04DX003 (ip), vehicle: other 101 % of control | dose: 0.75 mg/kg/injection, schedule: Q04DX003 (ip), vehicle: other 93 % of control | dose: 1.5 mg/kg/injection, schedule: Q04DX003 (ip), vehicle: other 100 % of control

CN(C)c1ncnc2c1ncn2C1OC(CO)C(N(C)C)C1O (stereo not given)
inactive: dose: 100.0 mg/kg/injection, schedule: Q01DX005 (ip), vehicle: saline 103 % of control | dose: 200.0 mg/kg/injection, schedule: Q01DX005 (ip), vehicle: saline 95 % of control
